Test [1] concerns NCI-H716 cells. Put plainly: Promotion of GLP-1 secretion in NCI-H716 cells. The test is classed as cell-based, human. The note with it: 30 minutes at 37° C., buffer assumed to be 1.0. The method, then: Human appendix-derived cell line NCI-H716 (ATCC No CCL-251) was cultured in a 10% FBS-containing DMEM/HamF-12 medium at 37° C. in the presence of 5% CO2. NCI-H716 cells were seeded in a poly-D-lysine-coated 96-well plate at 100,000 cells/well and cultured for two days. Prior to sample addition, wells were washed with Hepes buffer (20 mM Hepes, 146 mM NaCl, 5 mM KCl, 1.5 mM CaCl2, 1 mM MgSO4, 5.5 mM D-glucose, 0.2% BSA, pH 7.4). Fifty μl of a sample solution dissolved in the same buffer was added and incubated at 37° C. for 30 minutes. The above-described compounds in Example 6 (Compound 1) (10 mM), Example 48 (Compound 2) (5 mM) and Example 14 (Compound 3) (2 mM) were used as the samples. In addition, a Hepes buffer was used as a control. After collecting the supernatant, the cells were precipitated by centrifugation (5,000×g, 1 min.) to collect the supernatant thereof. GLP-1 level in the supernatant was determined as described below according to a quantitative method for GLP-1 that uses GLP-1 receptor gene expression cells.
According to a routine method (Lopez de Maturana R, Willshaw A, Kuntzsch A, Rudolph R, Donnelly D. J Biol Chem. 2003 Mar. 21; 278 (12):10195-200), human GLP-1 receptor gene (Nucleotide sequence 1) was integrated into pcDNA3.1 to prepare human GLP-1 receptor gene expression plasmid hGLP-1R/pcDNA3.1. Moreover, chimeric gene (Nucleotide sequence 2) of human Gα15 gene and human gustducin gene was integrated into pcDNA3.1 to prepare G protein expression plasmid Gα15-gust/pcDNA3.1. […] After 24 hours of cultivation in a CO2 incubator, changes in the fluorescence intensity were determined starting immediately after sample addition according to the Ca^2+ fluorescence indicator FLIPR Calcium 4 Assay Kit protocol (Molecular Devices) using FlexStation (Molecular Devices). Concentration dependency of human GLP-1 (7-36 Amide; Peptide Institute) with respect to the changes in the fluorescence intensity was determined and used as a standard curve for quantitating the sample. […]

In test [2] the test system is NCI-H716 cells. The test is described as follows: Promotion of CCK secretion in NCI-H716 cells. The test is classed as cell-based, human. On the procedure: Human appendix-derived cell line NCI-H716 (ATCC No CCL-251) was cultured in a 10% FBS-containing DMEM/HamF-12 medium at 37° C. in the presence of 5% CO2. NCI-H716 cells were seeded in a poly-D-lysine-coated 24-well plate at 600,000 cells/well and cultured for two days. Prior to sample addition, wells were washed with Hepes buffer (20 mM Hepes, 146 mM NaCl, 5 mM KCl, 1.5 mM CaCl2, 1 mM MgSO4, 5.5 mM D-glucose, 0.02% BSA, pH 7.4). 300 μl of a sample solution dissolved in the same buffer was added and incubated at 37° C. for 30 minutes. Compound 1 in Example 6 (2 mM) and Compound 2 in Example 48 (1 mM) were used as the samples. In addition, a Hepes buffer was used as a control. After collecting the supernatant, the cells were precipitated by centrifugation (5,000×g, 1 min.) to collect the supernatant thereof, which was lyophilized in Speed Vac Concentrator (SAVANT) and dissolved by addition of 60 μl of water. CCK level in the solution was determined using Enzyme immuno assay kit (EK-069-04; PHENOIX PHARMACEUTICALS).

For a further test, the target named is T1, human CaSR (Homo sapiens, UniProt P41180).
T1 construct: expressed in transfected cells; host or cells: 293E cells (EBNA1-expressing HEK293, ATCC No. CRL-10852), transient transfection of hCaSR/pcDNA3.1
T1 sequence (P41180 20-1078): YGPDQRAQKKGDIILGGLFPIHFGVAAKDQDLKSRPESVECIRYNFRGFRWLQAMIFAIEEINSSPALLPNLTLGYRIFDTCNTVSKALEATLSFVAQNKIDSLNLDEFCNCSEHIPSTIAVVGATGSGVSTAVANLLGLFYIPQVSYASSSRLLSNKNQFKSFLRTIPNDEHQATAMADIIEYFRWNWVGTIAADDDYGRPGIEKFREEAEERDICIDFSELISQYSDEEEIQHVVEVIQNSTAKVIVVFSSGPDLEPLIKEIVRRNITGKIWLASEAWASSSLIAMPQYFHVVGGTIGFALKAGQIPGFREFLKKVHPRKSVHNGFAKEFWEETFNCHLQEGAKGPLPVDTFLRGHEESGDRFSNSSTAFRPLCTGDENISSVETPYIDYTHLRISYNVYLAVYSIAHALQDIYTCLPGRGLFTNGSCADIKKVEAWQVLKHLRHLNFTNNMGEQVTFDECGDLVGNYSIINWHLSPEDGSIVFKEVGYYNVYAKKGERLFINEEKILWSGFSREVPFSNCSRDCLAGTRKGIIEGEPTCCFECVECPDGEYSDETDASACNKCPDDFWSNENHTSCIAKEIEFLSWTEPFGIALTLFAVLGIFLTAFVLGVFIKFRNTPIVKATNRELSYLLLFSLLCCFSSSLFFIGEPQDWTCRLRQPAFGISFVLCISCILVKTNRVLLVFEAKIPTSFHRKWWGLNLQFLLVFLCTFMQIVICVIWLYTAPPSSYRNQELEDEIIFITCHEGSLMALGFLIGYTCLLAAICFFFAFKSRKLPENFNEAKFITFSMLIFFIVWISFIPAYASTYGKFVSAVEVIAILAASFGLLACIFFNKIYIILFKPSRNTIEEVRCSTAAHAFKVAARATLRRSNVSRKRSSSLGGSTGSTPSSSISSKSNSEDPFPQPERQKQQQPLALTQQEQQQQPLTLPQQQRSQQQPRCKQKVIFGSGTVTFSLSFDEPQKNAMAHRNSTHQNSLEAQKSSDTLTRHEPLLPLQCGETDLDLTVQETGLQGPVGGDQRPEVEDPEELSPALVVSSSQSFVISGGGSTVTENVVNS
The test is described as follows: Assessment of CaSR agonistic activity (Ca2+ fluorescence, FLIPR, hCaSR-transfected 293E cells). The settings on record: human CaSR-expressing 293E cells, 1.5 mM CaCl2 assay buffer, 3-minute change in fluorescence intensity. The test is classed as cell-based. On the procedure:
CaSR gene was prepared according to the method described in Example 1 of WO07/55393. The resulting recombinant plasmid was used to generate human CaSR-expressing plasmid hCaSR/pcDNA3.1.
293E cells (EBNA1-expressing IIEK293 cells, ATCC No. CRL-10852) were cultured in DMEM ([…] Glucose-containing Dulbecco's modified Eagle medium, Nacalai Tesque) containing 10% bovine fetal serum in the presence of 250 μg/ml of G418. The cells were seeded on a 10 cm-diameter petri dish at 1.8×10^6 cells/15 ml, and left to stand in a CO2 incubator (5% CO2, 37° C.) for 24 hours. Thereafter, human CaSR expression plasmid hCaSR/pcDNA3.1 was transfected with transfection reagent Mirus Trans IT 293 (Takara Bio). Following static culture in a CO2 incubator for 24 hours, the cells were harvested with 10% bovine fetal serum-containing DMEM and seeded on a poly-D-lysine coat 384 well plate (Falcon) at 15,000 cells/well. Following static culture in a CO2 incubator for 24 hours, the medium was removed and the resultant was added with 50 μl/well of Ca^2+ fluorescent indicator Calcium 4 Assay Kit (Molecular Devices) dissolved in an assay buffer (146 mM NaCl, 5 mM KCl, 1 mM MgSO4, 1 mg/ml Glucose, 20 mM HEPES (PH 7.2), 1.5 mM CaCl2), and left to stand at 37° C. for an hour and then at room temperature for 30 minutes to allow intake of the indicator. The above-mentioned 384-well plate was transferred to FLIPR (Molecular Devices) and added with 12.5 μl/well of a compound dissolved in a 0.1% BSA-containing assay buffer to measure 3-minute change in the fluorescence intensity.
The difference between maximum and minimum fluorescence intensities before and after compound addition (RFU (Max−Min)) was determined by FLIPR automatic calculation. An activity rate was calculated where RFU (Max−Min) upon addition of a compound at a maximum concentration was defined 100% and RFU (Max−Min) upon addition of DMSO as a substitute for the compound at the same concentration was defined 0%. The rate was subjected to curve fitting using spreadsheet software Xfit to determine EC50 value, i.e., a compound concentration upon 50% activity rate.

Another test concerns normal mice (C57BL/6J). The test is described as follows: Effects on gastric emptying using mouse (phenol red method). The class given is in vivo. The note with it: 2.4 nmol/kg subcutaneously, 24 h fasted mice, phenol red 15 min after drug, stomach resected 20 min later; vehicle 82.4 ± 7.0%. The method, then: A dosing vehicle (distilled water) or 3 mg/kg of the compound in Example 6 (Compound 1) was orally administered in a forced manner using a mouse sonde to normal mice (C57BL/6J, 7-week-old) after 24 hours of fasting. As positive controls, a group subcutaneously injected with Exendin-4 (Sigma) (2.4 nmol/kg) that was known to have an effect of suppressing gastric emptying was also prepared. 10 ml/kg of dosing vehicle was also orally administered to the mice of the Exendin-4 group. Fifteen minutes after drug administration, phenol red solution (0.5 mg/ml phenol red+1.5% methylcellulose+distilled water) was orally administered in a forced manner at a volume of 5 ml/kg. After another 20 minutes, the stomach was resected from each mouse and phenol red remaining in the stomach was extracted in 0.1N NaOH solution. Absorbance of the extracted solution was determined at 560 nm to quantitate the amount of remaining phenol red (S). While the amount of phenol red (C) extracted from the stomach resected immediately after the administration of phenol red was assumed to be 100%, the amount of remaining phenol red […] with respect to C was calculated, as a gastric emptying volume (%), based on the following expression. Gastric emptying volume(%)=(1−(S/C))×100

Turning to `Cc1c(Cl)cc(S(=O)(=O)O)cc1NC(=O)NC[C@H](N)C(=O)O` [Example 14, (2S)-2-amino-3-{[(3-chloro-2-methyl-5-sulfophenyl)carbamoyl]amino}propanoic acid], in the test with NCI-H716 cells [1] (2 mM), the “Relative secretion volumes (GLP-1)” value worked out at 3.54.
Turning to `Cc1c(Cl)cc(NC(=S)NC[C@H](N)C(=O)O)cc1S(=O)(=O)O` [Example 48, (2S)-2-amino-3-{[(3-chloro-4-methyl-5-sulfophenyl)carbamothioyl]amino}propanoic acid], the “Relative secretion volumes (CCK)” value in the test with NCI-H716 cells [2] (1 mM, 30 minutes at 37° C., buffer assumed to be 1.0) turned out to be 2.22. Moreover, the “effect of promoting CCK secretion” value in the test on NCI-H716 cells [2] (result in words) was “confirmed to have an effect of promoting CCK secretion”. Besides, in the test on NCI-H716 cells [1] (5 mM), the “Relative secretion volumes (GLP-1)” value was 15.42.
At human CaSR, `COc1cc(NC(=O)NC[C@H](N)C(=O)O)cc(C(=O)O)c1` [Example 101, 3-({[(2S)-2-amino-2-carboxyethyl]carbamoyl}amino)-5-methoxybenzoic acid] displayed an EC50 of 3600 nM.
As to `N[C@@H](CNC(=O)Nc1cc(S(=O)(=O)O)ccc1F)C(=O)O` [Example 104, (2S)-2-amino-3-{[(2-fluoro-5-sulfophenyl)carbamoyl]amino}propanoic acid], the response on human CaSR was half-maximal at 490 nM (EC50).
On to “Exendin-4: Positive control (Sigma), known to have an effect of suppressing gastric emptying”, for which the Gastric emptying volume in the test with normal mice (C57BL/6J) is recorded as 51.2 ± 4.2% (*).

Values taken from patent US9150505B2, “Prophylactic or therapeutic agent for diabetes or obesity” (AJINOMOTO CO., INC., priority 2010, dated 2015).
